Target: Focal adhesion kinase 1 (Homo sapiens, UniProt Q05397)
Assay: In Vitro Enzymatic Inhibitory Activity Assay

Focal adhesion kinase 1, sequence (Q05397 whole entry): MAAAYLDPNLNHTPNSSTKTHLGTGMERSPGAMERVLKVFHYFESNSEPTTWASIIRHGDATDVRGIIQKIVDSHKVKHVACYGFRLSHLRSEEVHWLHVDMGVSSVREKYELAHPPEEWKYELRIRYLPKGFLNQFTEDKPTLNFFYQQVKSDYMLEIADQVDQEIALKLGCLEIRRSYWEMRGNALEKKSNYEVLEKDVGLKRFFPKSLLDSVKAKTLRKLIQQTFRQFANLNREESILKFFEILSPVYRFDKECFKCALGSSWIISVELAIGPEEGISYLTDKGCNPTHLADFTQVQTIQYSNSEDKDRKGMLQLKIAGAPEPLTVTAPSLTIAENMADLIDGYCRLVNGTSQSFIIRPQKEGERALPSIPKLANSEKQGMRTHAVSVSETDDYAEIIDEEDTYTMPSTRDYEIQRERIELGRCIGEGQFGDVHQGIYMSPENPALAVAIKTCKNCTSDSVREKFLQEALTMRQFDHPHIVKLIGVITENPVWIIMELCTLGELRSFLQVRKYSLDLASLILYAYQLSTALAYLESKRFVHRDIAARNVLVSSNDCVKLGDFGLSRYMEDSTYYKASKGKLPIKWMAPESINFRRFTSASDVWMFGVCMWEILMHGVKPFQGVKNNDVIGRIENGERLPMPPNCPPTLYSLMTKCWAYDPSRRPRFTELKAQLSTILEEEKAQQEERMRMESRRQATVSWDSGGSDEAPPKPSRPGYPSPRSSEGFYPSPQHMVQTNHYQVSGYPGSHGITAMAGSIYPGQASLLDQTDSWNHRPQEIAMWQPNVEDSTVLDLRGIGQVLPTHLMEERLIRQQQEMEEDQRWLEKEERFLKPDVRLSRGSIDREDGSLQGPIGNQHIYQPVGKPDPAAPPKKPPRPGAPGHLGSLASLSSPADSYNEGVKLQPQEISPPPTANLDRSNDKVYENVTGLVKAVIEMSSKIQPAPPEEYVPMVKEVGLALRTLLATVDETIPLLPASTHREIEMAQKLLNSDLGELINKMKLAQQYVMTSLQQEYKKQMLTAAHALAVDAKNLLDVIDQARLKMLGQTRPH

| IC50 [nM] | Structure (SMILES) |
| --- | --- |
| 3.41 | C=CC(=O)N1CCCC(c2cccc(NCc3ccc(Nc4ncc(C(F)(F)F)c(Nc5ccccc5C(=O)NC)n4)c(OC)c3)c2)C1 (stereo unspecified) [US20250127800, Example 12] |
| 0.9 | C=CC(=O)NC1CCC(CNC(=O)c2ccc(Nc3ncc(C(F)(F)F)c(NCc4nccnc4N(C)S(C)(=O)=O)n3)c(OC)c2)CC1 (stereo unspecified) [US20250127800, Example 5] |
| 2.93 | C=C(C)C(=O)N1CCCC(c2cccc(NCc3ccc(Nc4ncc(C(F)(F)F)c(Nc5ccccc5C(=O)NC)n4)cc3)c2)C1 (stereo unspecified) [US20250127800, Example 24] |
| 7.84 | C=CC(=O)N1CCCC(c2cccc(NCc3ccc(Nc4ncc(Cl)c(Nc5ccccc5C(=O)NC)n4)cc3)c2)C1 (stereo unspecified) [US20250127800, Example 15] |

| Structure (SMILES) | IC50 [nM] |
| --- | --- |
| C=CC(=O)N1CCCC(NC(=O)c2ccc(Nc3ncc(C(F)(F)F)c(NCc4nccnc4N(C)S(C)(=O)=O)n3)c(OC)c2)C1 (stereo unspecified) [US20250127800, Example 3] | 1.59 |
| C=CC(=O)N1CCC(NC(=O)c2ccc(Nc3ncc(C(F)(F)F)c(NCc4nccnc4N(C)S(C)(=O)=O)n3)c(OC)c2)C1 (stereo unspecified) [US20250127800, Example 2] | 1.18 |
